Reference: paper PMC11270923 (BMC Chemistry, 2024)

Assay: Thermodynamic dissolution properties from Van't Hoff and Gibbs equations
Assay type: physicochemical
Description: The Gibbs and […] equations were used to determine the thermodynamic parameters of dissolution. A mean harmonic temperature of 305.55 K was utilized for the calculations, which were based on a temperature range of 298.15 K to 313.15 K [35]. […] On the other hand, ΔHsolno can be calculated by plotting lnx1 versus 1/T-1/Thm which is called van’t Hoff plot:16 ΔHsolno=-R(∂lnx1/∂(1/T-1/Thm))P 17 ΔGsolno=-RThm×intercept
By solving Eqs. 16 and 17, we can determine the values of the parameters ΔHsolno and ΔGsolno . The standard molar entropy of dissolution, ΔSsolno , can then be calculated using the following equation [40–42]:18 ΔSsolno=ΔHsolno-ΔGsolno/Thm
The relative contributions of entropy and enthalpy to the standard molar Gibbs free energy of dissolution of ACP are explained by Eqs. 17, 18, as shown by the symbols ξH and ξTS , respectively:19 %ξH=ΔHsolno/ΔHsolno+TΔSsolno×100 20 %ξTS=TΔSsolno/ΔHsolno+TΔSsolno×100

[1] = water+[DEA]La w3=0.0000, mean temperature 305.55 K
[2] = water+[DEA]La w3=0.0200, mean temperature 305.55 K
[3] = water+[DEA]La w3=0.0500, mean temperature 305.55 K
[4] = water+[DEA]La w3=0.0700, mean temperature 305.55 K
[5] = water+[DEA]La w3=0.1000, mean temperature 305.55 K
[6] = water+[DEA]La w3=0.1500, mean temperature 305.55 K
[7] = water+[DEA]La w3=0.2000, mean temperature 305.55 K
[8] = water+[MEA]La w3=0.0000, mean temperature 305.55 K
[9] = water+[MEA]La w3=0.0200, mean temperature 305.55 K
[10] = water+[MEA]La w3=0.0500, mean temperature 305.55 K
[11] = water+[MEA]La w3=0.0700, mean temperature 305.55 K
[12] = water+[MEA]La w3=0.1000, mean temperature 305.55 K
[13] = water+[MEA]La w3=0.1500, mean temperature 305.55 K
[14] = water+[MEA]La w3=0.2000, mean temperature 305.55 K
[15] = water+[TEA]La w3=0.0000, mean temperature 305.55 K
[16] = water+[TEA]La w3=0.0200, mean temperature 305.55 K
[17] = water+[TEA]La w3=0.0500, mean temperature 305.55 K
[18] = water+[TEA]La w3=0.0700, mean temperature 305.55 K
[19] = water+[TEA]La w3=0.1000, mean temperature 305.55 K
[20] = water+[TEA]La w3=0.1500, mean temperature 305.55 K
[21] = water+[TEA]La w3=0.2000, mean temperature 305.55 K

CC(=O)Nc1ccc(O)cc1 [ACP, Acetaminophen]
TMΔHsoln∘ [1]: 2.289 kcal/mol
ΔGsoln∘ [1]: 3.6702 kcal/mol
ΔHsoln∘ [1]: 5.9591 kcal/mol
ξH [1]: 72.250%
ξTS [1]: 27.750%
TMΔHsoln∘ [2]: 1.438 kcal/mol
ΔGsoln∘ [2]: 3.489 kcal/mol
ΔHsoln∘ [2]: 4.9264 kcal/mol
ξH [2]: 77.411%
ξTS [2]: 22.589%
TMΔHsoln∘ [3]: 0.108 kcal/mol
ΔGsoln∘ [3]: 3.3989 kcal/mol
ΔHsoln∘ [3]: 3.5065 kcal/mol
ξH [3]: 97.024%
ξTS [3]: 2.976%
ΔGsoln∘ [4]: 3.3511 kcal/mol
ΔHsoln∘ [4]: 3.1637 kcal/mol
ξH [4]: 94.407%
ξTS [4]: 5.593%
TMΔHsoln∘ [5]: 0.679 kcal/mol
ΔGsoln∘ [5]: 3.2808 kcal/mol
ΔHsoln∘ [5]: 3.9601 kcal/mol
ξH [5]: 85.361%
ξTS [5]: 14.639%
TMΔHsoln∘ [6]: 0.123 kcal/mol
ΔGsoln∘ [6]: 3.2333 kcal/mol
ΔHsoln∘ [6]: 3.3559 kcal/mol
ξH [6]: 96.472%
ξTS [6]: 3.528%
TMΔHsoln∘ [7]: 0.3011 kcal/mol
ΔGsoln∘ [7]: 3.1683 kcal/mol
ΔHsoln∘ [7]: 3.4692 kcal/mol
ξH [7]: 92.015%
ξTS [7]: 7.985%
TMΔHsoln∘ [8]: 2.289 kcal/mol
ΔGsoln∘ [8]: 3.6702 kcal/mol
ΔHsoln∘ [8]: 5.9591 kcal/mol
ξH [8]: 72.250%
ξTS [8]: 27.750%
TMΔHsoln∘ [9]: 1.168 kcal/mol
ΔGsoln∘ [9]: 3.4405 kcal/mol
ΔHsoln∘ [9]: 4.609 kcal/mol
ξH [9]: 79.777%
ξTS [9]: 20.223%
ΔGsoln∘ [10]: 3.3752 kcal/mol
ΔHsoln∘ [10]: 3.3439 kcal/mol
ξH [10]: 99.076%
ξTS [10]: 0.924%
ΔGsoln∘ [11]: 3.2777 kcal/mol
ΔHsoln∘ [11]: 2.9484 kcal/mol
ξH [11]: 89.953%
ξTS [11]: 10.047%
ΔGsoln∘ [12]: 3.2139 kcal/mol
ΔHsoln∘ [12]: 3.1785 kcal/mol
ξH [12]: 98.898%
ξTS [12]: 1.102%
TMΔHsoln∘ [13]: 0.4615 kcal/mol
ΔGsoln∘ [13]: 3.1248 kcal/mol
ΔHsoln∘ [13]: 3.5863 kcal/mol
ξH [13]: 88.600%
ξTS [13]: 11.400%
TMΔHsoln∘ [14]: 0.2928 kcal/mol
ΔGsoln∘ [14]: 3.0667 kcal/mol
ΔHsoln∘ [14]: 3.3595 kcal/mol
ξH [14]: 91.982%
ξTS [14]: 8.018%
TMΔHsoln∘ [15]: 2.289 kcal/mol
ΔGsoln∘ [15]: 3.6702 kcal/mol
ΔHsoln∘ [15]: 5.9591 kcal/mol
ξH [15]: 72.250%
ξTS [15]: 27.750%
TMΔHsoln∘ [16]: 1.658 kcal/mol
ΔGsoln∘ [16]: 3.5837 kcal/mol
ΔHsoln∘ [16]: 5.2416 kcal/mol
ξH [16]: 75.970%
ξTS [16]: 24.030%
TMΔHsoln∘ [17]: 0.196 kcal/mol
ΔGsoln∘ [17]: 3.5172 kcal/mol
ΔHsoln∘ [17]: 3.713 kcal/mol
ξH [17]: 94.992%
ξTS [17]: 5.008%
TMΔHsoln∘ [18]: 0.0473 kcal/mol
ΔGsoln∘ [18]: 3.4422 kcal/mol
ΔHsoln∘ [18]: 3.4895 kcal/mol
ξH [18]: 98.659%
ξTS [18]: 1.341%
TMΔHsoln∘ [19]: 0.7775 kcal/mol
ΔGsoln∘ [19]: 3.3774 kcal/mol
ΔHsoln∘ [19]: 4.1549 kcal/mol
ξH [19]: 84.235%
ξTS [19]: 15.765%
TMΔHsoln∘ [20]: 0.3346 kcal/mol
ΔGsoln∘ [20]: 3.2775 kcal/mol
ΔHsoln∘ [20]: 3.6121 kcal/mol
ξH [20]: 91.522%
ξTS [20]: 8.478%
TMΔHsoln∘ [21]: 0.4285 kcal/mol
ΔGsoln∘ [21]: 3.2144 kcal/mol
ΔHsoln∘ [21]: 3.6429 kcal/mol
ξH [21]: 89.476%
ξTS [21]: 10.524%
